Results from patent US20230263822A1, “MODULATION OF FACTOR 11 EXPRESSION” (Ionis Pharmaceuticals, Inc., priority 2008, published 2023).

What was measured:
[1] = Tolerability in Sprague-Dawley rats: body weight and organ weight (Example 35); format: in vivo; conditions: 50 mg/kg s.c. twice per week for 6 weeks; for Percent change: Body weight: percent change over the weights at the start of the study; for Percent change in organ weight: Kidney / Percent change in organ weight: Liver / Percent change in organ weight: Spleen: vs saline control, normalized to body weight
From the text: Urine samples were taken before the start of treatment.
The body weights are presented in Table 71 and are expressed as a percent change over the weights taken at the start of the study.

[2] = Tolerability in CD1 mice: organ weight (Example 33); format: in vivo; conditions: 50 mg/kg s.c. twice a week, vs PBS control, normalized to body weight
Method: Three days after the last dose was administered to all groups, the mice were sacrificed.

human Factor 11 mRNA [3] = assay: Dose-dependent inhibition of human Factor 11 in HepG2 cells, lipofectin 2.34-75 nM (Example 5); format: cell-based; conditions: for percent inhibition of human Factor 11 mRNA relative to untreated control cells: ~16 hours
Method: Cells were plated at a density of 10,000 cells per well and transfected using lipofectin reagent with 2.34 nM, 4.69 nM, 9.375 nM, 18.75 nM, 37.5 nM, and 75 nM concentrations of antisense oligonucleotide, as specified in Table 11. After a treatment period of approximately 16 hours, RNA was isolated from the cells and human Factor 11 mRNA levels were measured by quantitative real-time PCR. Human Factor 11 primer probe set RTS 2966 was used to measure mRNA levels. Factor 11 mRNA levels were adjusted according to total RNA content, as measured by RIBOGREEN. Results are presented as percent inhibition of human Factor 11, relative to untreated control cells.

[4] = set-up: species or system CD1 mice; conditions: mouse, in vivo
Method: Five mice from each group were sacrificed 3 days, 28 days and 56 days following the final dose. Livers were harvested for analysis.
The concentration of the full-length oligonucleotide as well as the total oligonucleotide concentration (including the degraded form) was measured. The method used is a modification of previously published methods (Leeds et al., 1996; Geary et al., 1999) which consist of a phenol-chloroform (liquid-liquid) extraction followed by a solid phase extraction. An internal standard (ISIS 355868, a 27-mer 2′-O-methoxyethyl modified phosphorothioate oligonucleotide, […], designated herein as SEQ ID NO: 270) was added prior to extraction. […] Half-lives were then calculated using WinNonlin software ([…]).
The results are presented in Tables 68 and 69, expressed as μg/g liver tissue.

Factor 11 protein = Factor 11 protein in monkey plasma by sandwich ELISA (Example 46); format: in vivo, cynomolgus monkeys; conditions: 25 mg/kg subcutaneously
Method: Groups, each consisting of two male and two female monkeys, were injected subcutaneously with 25 mg/kg of ISIS 416850, ISIS 449709, ISIS 445522, ISIS 449710, ISIS 449707, ISIS 449711, ISIS 449708, 416858, and ISIS 445531. Antisense oligonucleotide was administered to the monkeys at 25 mg/kg three times per week for week 1 and 25 mg/kg twice per week for weeks 2 to 8. A control group, consisting of two male and two female monkeys was injected subcutaneously with PBS according to the same dosing regimen. Body weights were taken 14 days and 7 days before the start of treatment and were then measured weekly throughout the treatment period. Blood samples were collected 14 days and 5 days before the start of treatment and subsequently several times during the dosing regimen for PT and aPTT measurements, and measurement of various hematologic factors. On day 55, the monkeys were euthanized by exsanguination while under deep anesthesia, and organs harvested for further analysis.
Plasma samples from all monkey groups taken on different days were analyzed by a sandwich-style ELISA assay (Affinity Biologicals Inc.) using an affinity-purified polyclonal anti-Factor 11 antibody as the capture antibody and a peroxidase-conjugated polyclonal anti-Factor 11 antibody as the detecting antibody. Monkey plasma was diluted 1:50 for the assay. Peroxidase activity was expressed by incubation with the substrate o-phenylenediamine. The color produced was quantified using a microplate reader at 490 nm and was considered to be proportional to the concentration of Factor 11 in the samples.
The results are presented in Table 147, expressed as percentage reduction relative to that of the PBS control.

human Factor 11 mRNA [5] = assay: Dose-dependent inhibition of human Factor 11 in HepB3 cells, electroporation (Example 7); format: cell-based; conditions: for percent inhibition of human Factor 11 mRNA relative to untreated control cells: ~16 hours
Method: The gapmers were also transfected via electroporation and their dose dependent inhibition of human Factor 11 mRNA was measured. Cells were plated at a density of 20,000 cells per well and transfected via electroporation with 41.15 nM, 123.457 nM, 370.37 nM, 1111.11 nM, 3333.33 nM, and 10,000 nM concentrations of antisense oligonucleotide, as specified in Table 15. After a treatment period of approximately 16 hours, RNA was isolated from the cells and human Factor 11 mRNA levels were measured by quantitative real-time PCR. Human Factor 11 primer probe set RTS 2966 was used to measure mRNA levels. Factor 11 mRNA levels were adjusted according to total RNA content, as measured by RIBOGREEN. Results are presented as percent inhibition of human Factor 11, relative to untreated control cells.

Row | Substance | Percent change: Body weight [1] | Percent change in organ weight: Kidney [1] | Percent change in organ weight: Liver [1] | Percent change in organ weight: Spleen [1] | Percent change in kidney weight ([2]; 2 weeks) | Percent change in liver weight ([2]; 2 weeks) | Percent change in spleen weight ([2]; 2 weeks) | Percent change in kidney weight ([2]; 4 weeks) | Percent change in liver weight ([2]; 4 weeks) | Percent change in spleen weight ([2]; 4 weeks) | Percent change in kidney weight ([2]; 6 weeks) | Percent change in liver weight ([2]; 6 weeks) | Percent change in spleen weight ([2]; 6 weeks) | IC50 (human Factor 11 mRNA [3]) | percent inhibition of human Factor 11 mRNA relative to untreated control cells (human Factor 11 mRNA [3]; 2.34 nM) | percent inhibition of human Factor 11 mRNA relative to untreated control cells (human Factor 11 mRNA [3]; 4.69 nM) | percent inhibition of human Factor 11 mRNA relative to untreated control cells (human Factor 11 mRNA [3]; 9.375 nM) | percent inhibition of human Factor 11 mRNA relative to untreated control cells (human Factor 11 mRNA [3]; 18.75 nM) | percent inhibition of human Factor 11 mRNA relative to untreated control cells (human Factor 11 mRNA [3]; 37.5 nM) | percent inhibition of human Factor 11 mRNA relative to untreated control cells (human Factor 11 mRNA [3]; 75 nM) | other results
1 | 416850 (antisense TGCACAGTTTCTGGCAGGCC; 5-10-5 gapmer, further chemistry not given here) [compound 416850] | −33% | +47% | +23% | +354% | −0% | +5% | −4% | −12% | +3% | +6% | −11% | +6% | +48% | 13 nM | 24% | 31% | 49% | 55% | 70% | 77% | Half-Life in the liver [4]: 18 days; Inhibition of Factor 11 protein relative to the PBS control (percentage reduction) (Factor 11 protein; Day 10, plasma): 20%; Inhibition of Factor 11 protein relative to the PBS control (percentage reduction) (Factor 11 protein; Day 17, plasma): 31%; Inhibition of Factor 11 protein relative to the PBS control (percentage reduction) (Factor 11 protein; Day 24, plasma): 38%; Inhibition of Factor 11 protein relative to the PBS control (percentage reduction) (Factor 11 protein; Day 31, plasma): 52%; Inhibition of Factor 11 protein relative to the PBS control (percentage reduction) (Factor 11 protein; Day 38, plasma): 51%; Inhibition of Factor 11 protein relative to the PBS control (percentage reduction) (Factor 11 protein; Day 45, plasma): 53%; Inhibition of Factor 11 protein relative to the PBS control (percentage reduction) (Factor 11 protein; Day 52, plasma): 53%; Inhibition of Factor 11 protein relative to the PBS control (percentage reduction) (Factor 11 protein; Day 55, plasma): 58%; Inhibition of Factor 11 protein relative to the PBS control (percentage reduction) (Factor 11 protein; Day −5, plasma): 0%; Inhibition of Factor 11 protein relative to the PBS control (percentage reduction) (Factor 11 protein; Day −14, plasma): 0%; IC50 (human Factor 11 mRNA [5]): 300 nM; percent inhibition of human Factor 11 mRNA relative to untreated control cells (human Factor 11 mRNA [5]; 41.15 nM): 26%; percent inhibition of human Factor 11 mRNA relative to untreated control cells (human Factor 11 mRNA [5]; 123.457 nM): 38%; percent inhibition of human Factor 11 mRNA relative to untreated control cells (human Factor 11 mRNA [5]; 370.37 nM): 51%; percent inhibition of human Factor 11 mRNA relative to untreated control cells (human Factor 11 mRNA [5]; 1111.11 nM): 73%; percent inhibition of human Factor 11 mRNA relative to untreated control cells (human Factor 11 mRNA [5]; 3333.33 nM): 90%; percent inhibition of human Factor 11 mRNA relative to untreated control cells (human Factor 11 mRNA [5]; 10000 nM): 95%
2 | 417003 (antisense TGGTGCACAGTTTCTGGCAG; 2-13-5 gapmer chemistry, further chemistry not given here) [compound 417003] | −40% | +25% | +51% | +522% | −9% | +8% | +12% | −2% | +42% | +101% | −1% | +32% | +98% | 11 nM | 6% | 29% | 48% | 64% | 73% | 82% | Half-Life in the liver [4]: 10 days; IC50 (human Factor 11 mRNA [5]): 1500 nM; percent inhibition of human Factor 11 mRNA relative to untreated control cells (human Factor 11 mRNA [5]; 41.15 nM): 31%; percent inhibition of human Factor 11 mRNA relative to untreated control cells (human Factor 11 mRNA [5]; 123.457 nM): 0%; percent inhibition of human Factor 11 mRNA relative to untreated control cells (human Factor 11 mRNA [5]; 370.37 nM): 15%; percent inhibition of human Factor 11 mRNA relative to untreated control cells (human Factor 11 mRNA [5]; 1111.11 nM): 43%; percent inhibition of human Factor 11 mRNA relative to untreated control cells (human Factor 11 mRNA [5]; 3333.33 nM): 84%; percent inhibition of human Factor 11 mRNA relative to untreated control cells (human Factor 11 mRNA [5]; 10000 nM): 92%
3 | 417002 (antisense GGTGCACAGTTTCTGGCAGG; 2-13-5 gapmer chemistry, further chemistry not given here) [compound 417002] | −29% | +63% | +27% | +446% | +3% | +14% | +29% | −5% | +8% | +26% | −2% | +35% | +108% | 12 nM | 17% | 26% | 49% | 61% | 81% | 84% | Half-Life in the liver [4]: 11 days; IC50 (human Factor 11 mRNA [5]): 1200 nM; percent inhibition of human Factor 11 mRNA relative to untreated control cells (human Factor 11 mRNA [5]; 41.15 nM): 19%; percent inhibition of human Factor 11 mRNA relative to untreated control cells (human Factor 11 mRNA [5]; 123.457 nM): 0%; percent inhibition of human Factor 11 mRNA relative to untreated control cells (human Factor 11 mRNA [5]; 370.37 nM): 31%; percent inhibition of human Factor 11 mRNA relative to untreated control cells (human Factor 11 mRNA [5]; 1111.11 nM): 47%; percent inhibition of human Factor 11 mRNA relative to untreated control cells (human Factor 11 mRNA [5]; 3333.33 nM): 86%; percent inhibition of human Factor 11 mRNA relative to untreated control cells (human Factor 11 mRNA [5]; 10000 nM): 93%
